# Counter-ions that a name gives are not always drawn. Like-named read-outs stand apart in the source and are kept apart here.
# Molecular target: T1, rat VMAT2-His (Rattus norvegicus, UniProt Q01827)
# T1 construct: The ORF of rat VMAT2 was subcloned into a pFastBac vector; His; made in house; host or cells: Sf9 insect cells (baculovirus)
# Experiment: Differential scanning fluorimetry (DSF) with CPM dye: change of melting temperature of purified VMAT2
# Format: binding
# Conditions: for ΔTm at 12 µM / ΔTm at 37 µM / ΔTm at 10 µM / ΔTm at 30 µM / ΔTm at 90 µM / ΔTm at 270 µM / ΔTm at 11 µM / ΔTm at 33 µM: read-out: ΔTm
# Protocol: To screen purified VMAT2 by DSF we expressed the rat VMAT2 protein, as VMAT2-His, in SF9 insect cells using the baculovirus expression system. The transporter was solubilized and purified in n-Dodecyl-β-D-maltoside (DDM)/cholesterol hemisuccinate (CHS) micelles by immobilized metal affinity chromatography (IMAC) and size exclusion chromatography (SEC). […] Screening was performed using DSF and the thiol-reactive dye 7-diethylamino-3-(4-maleimidophenyl)-4-methylcoumarin (CPM), an approach that monitors changes to the protein melting temperature (Tm) upon compound binding. Using CPM or other dyes, DSF-based assays have successfully been used in molecular-based screenings[34],[35]. […] DSF screening was performed in 384 well plates using the thiol-sensing dye 7-diethylamino-3-(4-maleimidophenyl)-4-methylcoumarin (CPM) (Merck). […] Protein melting curves were determined using a LightCycler 480 ii RT-PCR system (Roche), with a temperature ramp increasing from 25 to 95 °C at a rate of 2 °C/min. Data analysis was performed using an in-house software that automatically determines the protein midpoint melting temperature (Tm) based on the second derivative of the melting curves or using the HTSDSF explorer as described in ref. [58]. […] 6 μl of this mix was dispensed to each well of 384 well plates using a Multidrop™ Combi Reagent Dispenser (Thermo Scientific). […] All initial hits were then subjected to an initial validation in triplicates with a compound concentration of 200 μM and a ΔTm > 5× the standard deviation (SD) cut off. […] Processing of the data from the primary screening and the concentration-dependent validation was performed as reported.
# [1] = Table S1, primary hits, average change in melting temperature vs controls, triplicates
# [2] = Table S2 dose response, compound 0,12 µM
# [3] = Table S2 dose response, compound 0,37 µM
# [4] = Table S2 dose response, compound 10 µM
# [5] = Table S2 dose response, compound 30 µM
# [6] = Table S2 dose response, compound 90 µM
# [7] = Table S2 dose response, compound 270 µM
# [8] = Table S2 dose response, compound 1,11 µM
# [9] = Table S2 dose response, compound 3,33 µM
# T1 sequence (Q01827 whole entry): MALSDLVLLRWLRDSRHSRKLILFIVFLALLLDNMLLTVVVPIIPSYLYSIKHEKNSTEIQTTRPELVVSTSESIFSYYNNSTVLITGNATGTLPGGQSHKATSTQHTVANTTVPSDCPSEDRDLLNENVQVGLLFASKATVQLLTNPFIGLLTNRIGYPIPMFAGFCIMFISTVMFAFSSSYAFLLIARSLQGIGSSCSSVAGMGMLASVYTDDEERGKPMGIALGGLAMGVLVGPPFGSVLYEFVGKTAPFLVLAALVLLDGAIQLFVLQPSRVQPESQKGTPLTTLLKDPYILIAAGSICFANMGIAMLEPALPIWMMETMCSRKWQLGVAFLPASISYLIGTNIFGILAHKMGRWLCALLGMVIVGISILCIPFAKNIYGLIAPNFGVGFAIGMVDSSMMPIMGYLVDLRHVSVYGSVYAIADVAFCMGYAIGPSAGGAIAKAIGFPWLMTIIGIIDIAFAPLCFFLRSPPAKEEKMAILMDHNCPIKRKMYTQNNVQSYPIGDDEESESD
SMILES,ΔTm [1],ΔTm at 12 µM [2] [°C],ΔTm at 37 µM [3] [°C],ΔTm at 10 µM [4] [°C],ΔTm at 30 µM [5] [°C],ΔTm at 90 µM [6] [°C],ΔTm at 270 µM [7] [°C],ΔTm at 11 µM [8] [°C],ΔTm at 33 µM [9] [°C],also measured
C=CCc1ccccc1OCC(O)CNC(C)C (stereo not shown) [Alprenolol hydrochloride],"2,30 ± 0,05 oC",-0.11,-0.04,0.14,0.73,0.4,1.21,0.04,0.02,
CN1CCCC(n2nc(Cc3ccc(Cl)cc3)c3ccccc3c2=O)CC1 (stereo not shown) [Azelastine HCl],"0,85 ± 0,24 oC",,,-0.6,0.35,0.23,0.55,,,
CC(C)COCC(CN(Cc1ccccc1)c1ccccc1)N1CCCC1 (stereo not shown) [Bepridil hydrochloride],,-0.78,-0.68,-1.08,-1.2,-1.63,-3.8,-0.75,-0.93,
C[C@H](CCC(=O)O)[C@H]1CC[C@H]2[C@@H]3[C@H](O)C[C@@H]4C[C@H](O)CC[C@]4(C)[C@H]3CC[C@]12C [Chenodiol],"1,98 ± 0,15 oC",-0.11,-0.01,0.64,0.35,0.57,2.24,0.17,0.19,
Clc1ccc(Cn2c(CN3CCCC3)nc3ccccc32)cc1 [Clemizole hydrochloride],"-1,46 ± 0,10 oC",,,0.33,0.57,0.31,-0.69,,,
C[C@@H]1C[C@H]2[C@@H]3C[C@H](F)C4=CC(=O)C=C[C@]4(C)[C@@]3(Cl)[C@@H](O)C[C@]2(C)[C@H]1C(=O)COC(=O)C(C)(C)C [Clocortolone pivalate],"1,04 ± 0,11 oC",,,,,,,,,
CCCCCCC[N+](CC)(CC)CCCCc1ccc(Cl)cc1.Cc1ccc(S(=O)(=O)[O-])cc1 [Clofilium tosylate],,,,,,,,,,"ΔTm (270 µM): -2,26 oC; ΔTm [4]: -0,06 oC; ΔTm [5]: -0,15 oC; ΔTm [6]: -0,36 oC"
C[C@H](CCC(=O)O)[C@H]1CC[C@H]2[C@@H]3C(=O)C[C@@H]4CC(=O)CC[C@]4(C)[C@H]3CC(=O)[C@]12C [Dehydrocholic acid],"1,51 ± 0,28 oC",,,0.39,0.66,0.53,1.43,,,
CC(NCCC(c1ccccc1)c1ccccc1)c1ccccc1 (stereo not shown) [Fendiline hydrochloride],,,,-0.22,-0.24,-1.16,-3.27,,,
Fc1ccc(C(OCCN2CCN(CCCc3ccccc3)CC2)c2ccc(F)cc2)cc1 [GBR 12909 dihydrochloride],"-17,11 ± 0,01 oC",-0.02,-0.01,-1.07,-1.67,-2.3,-5.4,0.05,-0.34,
CCCCC(CC)CN1CN(CC(CC)CCCC)CC(C)(N)C1 (stereo not shown) [Hexetidine],,-0.09,-0.06,-0.28,-0.3,-0.46,-1.54,-0.02,-0.07,
CC(C(O)c1ccc(O)cc1)N1CCC(Cc2ccccc2)CC1.CC(C(O)c1ccc(O)cc1)N1CCC(Cc2ccccc2)CC1.O=C(O)C(O)C(O)C(=O)O (stereo not shown) [Ifenprodil tartrate],"1,23 ± 0,40 oC",,,,,,,,,"ΔTm (11 µM): -0,20 oC; ΔTm (12 µM): 0,30 oC; ΔTm (33 µM): 0,14 oC; ΔTm (37 µM): 0,32 oC; ΔTm (270 µM): 0,41 oC; ΔTm [4]: 0,09 oC; ΔTm [5]: 0,06 oC; ΔTm [6]: -0,04 oC"
CN[C@@H]1C[C@@H](c2ccc(Cl)c(Cl)c2)c2ccccc21 [Indatraline hydrochloride],,,,-0.37,-0.63,-1.01,,,,ΔTm at 11 µM: -0.28 °C; ΔTm at 12 µM: 0.24 °C; ΔTm at 33 µM: -0.41 °C; ΔTm at 37 µM: 0.04 °C; ΔTm at 270 µM: -2.11 °C
O=C(c1ccc(F)cc1)C1CCN(CCn2c(=O)[nH]c3ccccc3c2=O)CC1 [Ketanserin tartrate hydrate],"3,12 ± 0,24 oC",,,1.16,1.17,0.95,2.18,,,
CC(CCc1ccccc1)NCC(O)c1ccc(O)c(C(N)=O)c1 (stereo not shown) [Labetalol hydrochloride],"0,81 ± 0,07 oC",,,0.27,0.42,0.1,0.24,,,
Cc1cccc(C)c1NC(=O)CN1CCN(CCCC(c2ccc(F)cc2)c2ccc(F)cc2)CC1 [Lidoflazine],"1,35 ± 0,18 oC",0.23,0.05,0.23,0.21,0.33,1.14,0.12,0.16,
OC(c1cc(C(F)(F)F)nc2c(C(F)(F)F)cccc12)C1CCCCN1 (stereo not shown) [Mefloquine hydrochloride],"-11,15 ± 0,23 oC",-0.02,0.04,0.1,0.21,0.09,0.08,0,-0.11,
C1CCC(C(CC2CCCCN2)C2CCCCC2)CC1 (stereo not shown) [Perhexiline maleate],,,,-0.18,-0.27,-1.17,-3.23,,,
CN1CCC(=C2c3ccccc3Sc3ccccc32)CC1 [Pimethixene maleate],,,,0.15,-0.18,-0.14,-1.59,,,
COC(=O)[C@H]1[C@H]2C[C@@H]3c4[nH]c5cc(OC)ccc5c4CCN3C[C@H]2C[C@@H](OC(=O)c2cc(OC)c(OC)c(OC)c2)[C@@H]1OC [Reserpine],,,,,,,,,,ΔTm at 10 µM: 13.5 °C; ΔTm at 11 µM: 13.6 °C; ΔTm at 12 µM: 13.7 °C; ΔTm at 30 µM: 13.9 °C; ΔTm at 33 µM: 13.6 °C; ΔTm at 37 µM: 13.7 °C; ΔTm at 90 µM: 14 °C; ΔTm at 270 µM: 13.7 °C
CC(C)(C)NC(=O)[C@@H]1C[C@@H]2CCCC[C@@H]2CN1C[C@@H](O)[C@H](Cc1ccccc1)NC(=O)[C@H](CC(N)=O)NC(=O)c1ccc2ccccc2n1 [Saquinavir mesylate],,-0.17,-0.28,-0.91,-0.7,-0.55,-1.64,-0.49,-0.65,

# Reference: paper PMC9684503 (Communications Biology, 2022)
